Calls of active or inactive are those of the source. The calls are words filed in the database; no cut-off is given here.
Legend:
Settings in all cases: Mus musculus
[1] = system: NIH3T3; test: Inhibitory activity against growth of vis-sis transformed NIH 3T3 cells at 1 mM; IA means inactive; type: functional, cell-based
[2] = system: NIH3T3; test: Inhibitory activity against growth of wild type NIH 3T3 cells at 1 mM; type: functional
[3] = system: NIH3T3; test: Inhibitory concentration against growth of vis-sis transformed NIH 3T3 cells with inositol; type: functional, cell-based
[4] = system: NIH3T3; test: Inhibitory concentration against growth of vis-sis transformed NIH 3T3 cells without inositol; type: functional, cell-based
[5] = system: NIH3T3; test: Inhibitory concentration against growth of wild type NIH 3T3 cells with inositol; type: functional, cell-based
[6] = system: NIH3T3; test: Inhibitory concentration against growth of wild type NIH 3T3 cells without inositol; type: functional, cell-based
[7] = system: NIH3T3; test: Inhibitory activity against growth of wild type NIH 3T3 cells at 1 mM; IA means inactive; type: functional, cell-based
[8] = system: NIH3T3; test: Inhibitory concentration against growth of vis-sis transformed NIH 3T3 cells at 1 mM; IA means inactive; type: functional, cell-based

## COP(=O)(CC1C(O)[C@H](O)C(O)[C@@H](O)C1O)OC (some centres undefined)
[1]
  inhibition: inactive
[2]
  inhibition at 1000 µM: 30%

## O=P(O)(O)CC1C(O)[C@H](O)C(O)[C@@H](O)C1O (some centres undefined)
[1]
  inhibition: inactive
[2]
  inhibition at 1000 µM: 30%

## OCC1C(O)C(O)C(O)C(O)C1O (centres undefined)
[3]
  IC50: 5.5 mM
[4]
  IC50: 10 mM
[5]
  IC50: 4.3 mM
[6]
  IC50: 23.8 mM

## C=C1C(O)[C@H](O)C(O)[C@@H](O)C1O (some centres undefined)
[7]
  inhibition: inactive
[8]
  inhibition: inactive

## OC1C(O)C(O)C(CI)C(O)C1O (centres undefined)
[3]
  IC50: 56.2 mM
[4]
  IC50: 19.9 mM
[5]
  IC50: 43 mM
[6]
  IC50: 23.8 mM

From ChEMBL document CHEMBL1126510, “Synthesis of D-3-deoxy-3-phosphonomethyl-myo-inositol and its dimethyl ester - compounds of use in studying the ptdins-3-kinase signalling pathway” (Bioorg Med Chem Lett, 1993)
